Assays:
Assay type in all cases: physicochemical
[1] = Solubility in water of sodium salts of Compound I; conditions: read-out: Aqueous Solubility of Sodium Salt Form of Compound I
Experimental: Sodium salts of Compound I described herein above were tested for solubility in water.

[2] = Solid-state stability of crystalline form on storage (form checked by X-ray powder diffraction); conditions: for crystalline form after extended storage: X-ray powder diffraction
Experimental: A sample of Form A crystalline hydrate of Compound I was subjected to stability analysis for 1 week at a temperature of 25° C. at 60% relative humidity.
Stability of Form B crystalline hydrate of compound I to extended storage was evaluated by storing samples of Form B crystalline hydrate of compound I for twelve months at either 5° C. or 25° C., and then subjecting samples of the stored material to X-ray powder diffraction analytical analysis.

[3] = Hygroscopicity by dynamic vapor sorption
Experimental: Form A crystalline hydrate of compound I was analyzed by X-ray powder diffraction, thermogravimetric analysis, dynamic vapor sorption (to analyze hygroscopicity), and Karl Fischer titration.
The title compound was analyzed for hygroscopicity by dynamic vapor sorption.

Question: With Nc1nc(Cl)nc2c1ncn2[C@H]1[C@H](O)[C@H](O)[C@]2(COP(=O)(O)O)C[C@H]12 [Compound I, ((1R,2R,3S,4R,5S)-4-(6-amino-2-chloro-9H-purin-9-yl)-2,3-dihydroxybicyclo[3.1.0]hexan-1-yl)methyl dihydrogen phosphate] as the compound, how does the solubility [1] read?
Answer: Its solubility is 3000 µg/mL.

Question: Which results are given for Nc1nc(Cl)nc2c1ncn2[C@H]1[C@H](O)[C@H](O)[C@]2(COP(=O)(O)O)C[C@H]12 [Form A crystalline hydrate of Compound I]?
Answer: crystalline form at the end of the stability study ([2]; 1 week, 25° C., 60% relative humidity): converted to Form B crystalline hydrate of Compound I; increase in weight during the absorption step ([3]; absorption step, FIG. 3, in %): 5.2100; weight loss during the desorption step ([3]; desorption step, FIG. 3): 5.16%

Question: Which “relative stability of crystalline forms” value ([2]; comparison with Form A hydrate and crystalline sodium salt forms) does the source give for Nc1nc(Cl)nc2c1ncn2[C@H]1[C@H](O)[C@H](O)[C@]2(COP(=O)(O)O)C[C@H]12 [Form B crystalline hydrate of compound I] here?
Answer: Its value is “more stable than Form A of crystalline hydrate of compound I and more stable than the crystalline sodium salt forms of compound I”.

Question: What about the “crystalline form after extended storage” value ([2]; twelve months at 5° C.) of the same compound?
Answer: The value was “remain as Form B crystalline hydrate of compound I”.

Question: And the “crystalline form after extended storage” value ([2]; twelve months at 25° C.)?
Answer: Its value is “remain as Form B crystalline hydrate of compound I”.
